Assay results published in US20240376097A1, “BCL-2 Inhibitor” (BeiGene Ltd., priority 2020, published 2024).

Columns and labels:
Format in all cases: binding
[1] = molecular target: Recombinant human Bcl-2 protein (Homo sapiens (Human), UniProt P10415); assay: Bcl-2 TR-FRET Assay; settings: Bcl-2 wild type, TR-FRET; read-out: Biochemical assay (IC50, nM) Bcl-2 WT
Description: Biological Example: Bcl-2 TR-FRET Assay
Compounds disclosed herein were tested for blocking of Bcl-2 protein with its ligand in an assay based on Time-Resolved Fluorescence Resonance Energy Transfer (TR-FRET) methodology. Recombinant human 0.05 nM Bcl-2 protein was pre-incubated with a serial dilution of compounds disclosed herein (top final concentration is 1 uM or 0.1 uM or 0.02 uM or 0.01 uM, 10 points) at room temperature for 0.5 hour in an assay buffer containing 20 mM potassium phosphate buffer, pH 7.5, 50 mM NaCl. 1 mM EDTA, 0.05% Tween-20, 0.01% BSA. Then the FITC labeled Bak peptide Ac-GQVGRQLAIIGDK(FITC)INR-amide (0.5 nM) and MAb Anti 6His Tb cryptate Gold were added to plate and further incubated at room temperature for 1 hour. The TR-FRET signals (337 nm-520 nm-490 nm) were read on BMG PHERAstar FSX instrument. The inhibition percentage of Bcl-2 interaction with its ligand in presence of increasing concentrations of compounds was calculated based on the TR-FRET signals. The IC50 for each compound was derived from fitting the data to the four-parameter logistic equation by Graphpad Prism software or Dotmatics.

[2] = molecular target: recombinant human Bcl-2-G101V protein (Homo sapiens (Human), UniProt P10415, G101V); assay: Bcl-2-G101V TR-FRET Assay; settings: Bcl-2 G101V mutant, TR-FRET; read-out: Biochemical assay (IC50, nM) Bcl-2 G101V
Description: (§1) Biological Example: Bcl-2-G101V TR-FRET Assay
(§2) […]. The TR-FRET signals (ex337 nm, em490 nm/520 nm) were read on BMG PHERAstar FSX instrument. The inhibition percentage of Bcl-2-G101V interaction with its ligand in presence of increasing concentrations of compounds was calculated based on the ratio of fluorescence at 490 nm to that at 520 nm. The IC50 for each compound was derived from fitting the data to the four-parameter logistic equation by Graphpad Prism software or Dotmatics.

[3] = tested on: recombinant human Bcl-2-G101V protein; assay: Bcl-2-G101V TR-FRET Assay; settings: ratio of biochemical IC50 Bcl-2 G101V / Bcl-2 WT
Description: as §1, §2

How did the IC50 [1] turn out when `CC(C)c1ccccc1C1CN(Cc2cccc3c2CCCC3)CCN1C1CC2(CCN(c3ccc(C(=O)NS(=O)(=O)c4ccc(NC[C@H]5CC[C@](C)(O)CC5)c([N+](=O)[O-])c4)c(Oc4cnc5[nH]ccc5c4)c3)CC2)C1` (stereo partly drawn) [Example 55, 2-((1H-pyrrolo[2,3-b]pyridin-5-yl)oxy)-N-((4-((((1r,4r)-4-hydroxy-4-methylcyclohexyl)methyl)amino)-3-nitrophenyl)sulfonyl)-4-(2-(2-(2-isopropylphenyl)-4-((5,6,7,8-tetrahydronaphthalen-1-yl)methyl)piperazin-1-yl)-7-azaspiro[3.5]nonan-7-yl)benzamide] was run?
Its IC50 is 3.8 nM.

And the IC50 [2]?
Its IC50 is 12 nM.

And the “Ratio of Bcl-2 G101V/WT” value [3]?
The value was 3.2.

What does the source list for `COc1cc(CN2CCN(C3CC4(CCN(c5ccc(C(=O)NS(=O)(=O)c6ccc(NC[C@H]7CC[C@](C)(O)CC7)c([N+](=O)[O-])c6)c(Oc6cnc7[nH]ccc7c6)c5)CC4)C3)[C@H](c3ccccc3C(C)C)C2)ccc1CC(C)C` [Example 293]?
IC50 [1]: 3.2 nM; IC50 [2]: 11 nM; Ratio of Bcl-2 G101V/WT [3]: 3.4

`CC(C)c1ccccc1C1CN(C2CCOC2)CCN1C1CC2(CCN(c3ccc(C(=O)NS(=O)(=O)c4ccc(NC[C@H]5CC[C@](C)(O)CC5)c([N+](=O)[O-])c4)c(Oc4cnc5[nH]ccc5c4)c3)CC2)C1` (stereo partly drawn) [Example 8, 2-((1H-pyrrolo[2,3-b]pyridin-5-yl)oxy)-N-((4-((((1r,4r)-4-hydroxy-4-methylcyclohexyl)methyl)amino)-3-nitrophenyl)sulfonyl)-4-(2-(2-(2-isopropylphenyl)-4-(tetrahydrofuran-3-yl)piperazin-1-yl)-7-azaspiro[3.5]nonan-7-yl)benzamide] was tested. Which IC50 [1] did it give?
The IC50 was 0.02 nM.

And the IC50 [2]?
Its IC50 is 0.32 nM.

And the “Ratio of Bcl-2 G101V/WT” value [3]?
Its value is 16.0.

What does the source list for `CC(C)c1ccccc1[C@@H]1CN(Cc2ccc(C3CCOCC3)cc2)CCN1C1CC2(C1)CN(c1ccc(C(=O)NS(=O)(=O)c3ccc(NC[C@H]4CC[C@](C)(O)CC4)c([N+](=O)[O-])c3)c(Oc3cnc4[nH]cc(F)c4c3)c1)C2` [Example 370, 2-((3-fluoro-1H-pyrrolo[2,3-b]pyridin-5-yl)oxy)-N-((4-((((1r,4r)-4-hydroxy-4-methylcyclohexyl)methyl)amino)-3-nitrophenyl)sulfonyl)-4-(6-((R)-2-(2-isopropylphenyl)-4-(4-(tetrahydro-2H-pyran-4-yl)benzyl)piperazin-1-yl)-2-azaspiro[3.3]heptan-2-yl) benzamide]?
IC50 [1]: 0.18 nM; IC50 [2]: 0.67 nM; Ratio of Bcl-2 G101V/WT [3]: 3.7

`CC#CC(c1ccccc1)N1CCN(C2CC3(CCN(c4ccc(C(=O)NS(=O)(=O)c5ccc(NC[C@H]6CC[C@](C)(O)CC6)c([N+](=O)[O-])c5)c(Oc5cnc6[nH]ccc6c5)c4)CC3)C2)C(c2ccccc2C(C)C)C1` (stereo partly drawn) [Example 63] was tested. Which IC50 [1] did it give?
The IC50 was 1.4 nM.

And the IC50 [2]?
The IC50 was 20 nM.

What about the “Ratio of Bcl-2 G101V/WT” value [3] of the same compound?
Its value is 14.3.

`CC(C)c1ccccc1C1CN(Cc2ccc(Cl)c(Cl)c2)CCN1C1CC2(CCN(c3ccc(C(=O)NS(=O)(=O)c4ccc(NC[C@H]5CC[C@](C)(O)CC5)c([N+](=O)[O-])c4)c(Oc4cnc5[nH]ccc5c4)c3)CC2)C1` (stereo partly drawn) [Example 117, 2-((1H-pyrrolo[2,3-b]pyridin-5-yl)oxy)-4-(2-(4-(3,4-dichlorobenzyl)-2-(2-isopropylphenyl)piperazin-1-yl)-7-azaspiro[3.5]nonan-7-yl)-N-((4-((((1r,4r)-4-hydroxy-4-methylcyclohexyl)methyl)amino)-3-nitrophenyl)sulfonyl)benzamide] was tested. Which IC50 [1] did it give?
Its IC50 is 1.6 nM.

What about the IC50 [2] of the same compound?
The IC50 was 7.1 nM.

What about the “Ratio of Bcl-2 G101V/WT” value [3] of the same compound?
Its value is 4.4.

For `COc1cc(CN2CCN(C3CC4(C3)CN(c3ccc(C(=O)NS(=O)(=O)c5ccc(NC[C@H]6CC[C@](C)(O)CC6)c([N+](=O)[O-])c5)c(Oc5cnc6[nH]cc(F)c6c5)c3)C4)[C@H](c3ccccc3C(C)C)C2)ccc1C(F)(F)F` [Example 289, 2-((3-fluoro-1H-pyrrolo[2,3-b]pyridin-5-yl)oxy)-N-((4-((((1r,4r)-4-hydroxy-4-methylcyclohexyl)methyl)amino)-3-nitrophenyl)sulfonyl)-4-(6-((R)-2-(2-isopropylphenyl)-4-(3-methoxy-4-(trifluoromethyl)benzyl)piperazin-1-yl)-2-azaspiro[3.3]heptan-2-yl) benzamide], which IC50 [1] is on record?
The IC50 was 1.7 nM.

What about the IC50 [2] of the same compound?
The IC50 was 4 nM.

And the “Ratio of Bcl-2 G101V/WT” value [3]?
Its value is 2.3.

Which results are given for `COc1cc(CN2CCN(C3CC4(CCN(c5ccc(C(=O)NS(=O)(=O)c6ccc(NC[C@H]7CC[C@](C)(O)CC7)c([N+](=O)[O-])c6)c(Oc6cnc7[nH]ccc7c6)c5)CC4)C3)[C@H](c3ccccc3C(C)C)C2)ccc1C1CCCC1` [Example 294, 2-((1H-pyrrolo[2,3-b]pyridin-5-yl)oxy)-4-(2-((R)-4-(4-cyclopentyl-3-methoxybenzyl)-2-(2-isopropylphenyl)piperazin-1-yl)-7-azaspiro[3.5]nonan-7-yl)-N-((4-((((1r,4r)-4-hydroxy-4-methylcyclohexyl)methyl)amino)-3-nitrophenyl)sulfonyl)benzamide]?
IC50 [1]: 3.2 nM; IC50 [2]: 10 nM; Ratio of Bcl-2 G101V/WT [3]: 3.2

For `CC(C)c1ccccc1C1CN(Cc2cccc3c2CCCC3)CCN1C1CC2(CCN(c3ccc(C(=O)NS(=O)(=O)c4ccc(NCC5CCOCC5)c([N+](=O)[O-])c4)c(Oc4cnc5[nH]ccc5c4)c3)CC2)C1` (stereo not drawn) [Example 56, 2-((1H-pyrrolo[2,3-b]pyridin-5-yl)oxy)-4-(2-(2-(2-isopropylphenyl)-4-((5,6,7,8-tetrahydronaphthalen-1-yl)methyl)piperazin-1-yl)-7-azaspiro[3.5]nonan-7-yl)-N-((3-nitro-4-(((tetrahydro-2H-pyran-4-yl)methyl)amino)phenyl)sulfonyl) benzamide], which IC50 [1] is on record?
Its IC50 is 2.7 nM.

What about the IC50 [2] of the same compound?
The IC50 was 13 nM.

What about the “Ratio of Bcl-2 G101V/WT” value [3] of the same compound?
The value was 4.8.

How did the IC50 [1] turn out when `COc1cc(CN2CCN(C3CC4(CCN(c5ccc(C(=O)NS(=O)(=O)c6ccc(NC[C@H]7CC[C@](C)(O)CC7)c([N+](=O)[O-])c6)c(Oc6cnc7[nH]ccc7c6)c5)CC4)C3)C(c3ccccc3C(C)C)C2)cc(C(F)(F)F)c1` (stereo partly drawn) [Example 227, 2-((1H-pyrrolo[2,3-b]pyridin-5-yl)oxy)-N-((4-((((1r,4r)-4-hydroxy-4-methylcyclohexyl)methyl)amino)-3-nitrophenyl)sulfonyl)-4-(2-(2-(2-isopropylphenyl)-4-(3-methoxy-5-(trifluoromethyl)benzyl)piperazin-1-yl)-7-azaspiro[3.5]nonan-7-yl) benzamide] was run?
Its IC50 is 2 nM.

What about the IC50 [2] of the same compound?
Its IC50 is 6.4 nM.

And the “Ratio of Bcl-2 G101V/WT” value [3]?
The value was 3.2.

Which IC50 [1] does the source give for `COc1ccc(CN2CCN(C3CC4(CCN(c5ccc(C(=O)NS(=O)(=O)c6ccc(NC[C@H]7CC[C@](C)(O)CC7)c([N+](=O)[O-])c6)c(Oc6cnc7[nH]ccc7c6)c5)CC4)C3)C(c3ccccc3CC(C)C)C2)cc1` (stereo partly drawn) [Example 35, 2-((1H-pyrrolo[2,3-b]pyridin-5-yl)oxy)-N-((4-((((1r,4r)-4-hydroxy-4-methylcyclohexyl)methyl)amino)-3-nitrophenyl)sulfonyl)-4-(2-(2-(2-isobutylphenyl)-4-(4-methoxybenzyl)piperazin-1-yl)-7-azaspiro[3.5]nonan-7-yl) benzamide] here?
The IC50 was 2.2 nM.

And the IC50 [2]?
Its IC50 is 163 nM.

What about the “Ratio of Bcl-2 G101V/WT” value [3] of the same compound?
Its value is 74.1.

Which results are given for `COc1ccc(CN2CCN(C3CC4(CCN(c5ccc(C(=O)NS(=O)(=O)c6ccc(NC[C@H]7CC[C@](C)(O)CC7)c([N+](=O)[O-])c6)c(Oc6cnc7[nH]cc(F)c7c6)c5)CC4)C3)[C@H](c3ccccc3C(C)C)C2)cc1` (single isomer, unassigned) [Example 95, 2-((3-fluoro-1H-pyrrolo[2,3-b]pyridin-5-yl)oxy)-N-((4-((((1r,4r)-4-hydroxy-4-methylcyclohexyl)methyl)amino)-3-nitrophenyl)sulfonyl)-4-(2-((R or S)-2-(2-isopropylphenyl)-4-(4-methoxybenzyl)piperazin-1-yl)-7-azaspiro[3.5]nonan-7-yl) benzamide]?
IC50 [1]: 0.23 nM; IC50 [2]: 0.38 nM; Ratio of Bcl-2 G101V/WT [3]: 1.7

Which results are given for `COc1ccc(CN2CCN(C3CC4(CCN(c5ccc(C(=O)NS(=O)(=O)c6ccc(NC[C@H]7CC[C@](C)(O)CC7)c([N+](=O)[O-])c6)c(Oc6cnc7[nH]ccc7c6)c5)CC4)C3)C(c3ccccc3C3CCCC3)C2)cc1` (stereo partly drawn) [Example 36, 2-((1H-pyrrolo[2,3-b]pyridin-5-yl)oxy)-4-(2-(2-(2-cyclopentylphenyl)-4-(4-methoxybenzyl)piperazin-1-yl)-7-azaspiro[3.5]nonan-7-yl)-N-((4-((((1r,4r)-4-hydroxy-4-methylcyclohexyl)methyl)amino)-3-nitrophenyl)sulfonyl)benzamide]?
IC50 [1]: 0.58 nM; IC50 [2]: 16 nM; Ratio of Bcl-2 G101V/WT [3]: 27.6
